These compounds were tested against T1, human RXFP1 (Homo sapiens, UniProt Q9HBX9) (assay: human RXFP1 (hRXFP1) HEK293 cAMP assay (HTRF)). Conditions: HEK293 cells stably expressing human RXFP1, 30 min at room temperature.
T1 construct: expressed in transfected cells
T1 sequence (Q9HBX9 1-757): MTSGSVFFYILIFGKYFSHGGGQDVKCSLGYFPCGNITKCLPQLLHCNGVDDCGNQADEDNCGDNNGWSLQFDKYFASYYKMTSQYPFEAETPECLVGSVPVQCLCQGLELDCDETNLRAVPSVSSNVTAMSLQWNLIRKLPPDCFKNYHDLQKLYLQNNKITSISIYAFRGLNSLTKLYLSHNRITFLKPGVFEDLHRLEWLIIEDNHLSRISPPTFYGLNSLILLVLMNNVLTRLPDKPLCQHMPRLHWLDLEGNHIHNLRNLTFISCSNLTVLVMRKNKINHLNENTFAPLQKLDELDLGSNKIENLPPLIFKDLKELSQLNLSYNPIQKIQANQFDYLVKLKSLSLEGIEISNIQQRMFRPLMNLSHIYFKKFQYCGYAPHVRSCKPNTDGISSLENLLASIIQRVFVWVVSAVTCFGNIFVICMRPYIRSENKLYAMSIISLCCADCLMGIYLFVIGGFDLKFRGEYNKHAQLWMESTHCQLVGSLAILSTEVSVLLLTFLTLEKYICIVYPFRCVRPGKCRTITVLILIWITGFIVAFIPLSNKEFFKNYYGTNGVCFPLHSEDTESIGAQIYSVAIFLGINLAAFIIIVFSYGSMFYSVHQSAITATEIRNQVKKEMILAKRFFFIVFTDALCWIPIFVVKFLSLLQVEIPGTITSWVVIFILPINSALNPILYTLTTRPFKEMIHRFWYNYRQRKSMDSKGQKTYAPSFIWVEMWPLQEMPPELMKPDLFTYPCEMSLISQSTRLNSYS
Format: cell-based
Procedure, shortened: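 HEK293 cells stably expressing human RXFP1 (1500 cells/well) in HBSS/20 mM HEPES/0.05% BSA/0.5 mM IBMX, treated with compound (0.010 nM–50 µM final, 2% DMSO) for 30 min at room temperature. Intracellular cAMP read by HTRF; potency from 4-parameter logistic fit of cAMP versus concentration.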

EC50 [nM] | Structure (SMILES)
3.6 | COc1ncc(C2=NOC3OCCCC23)cc1C(=O)N[C@H]1[C@@H](C(=O)Nc2ccc(F)c(C(F)(F)F)c2)[C@H]2CC[C@@H]1/C2=C\C1CCCC1 (stereo partly drawn) [Example 125, N-((1R,2R, 3S,4R,Z)-7-(cyclopentyl-methylene)-3-((4-fluoro-3-(trifluoromethyl)phenyl)carbamoyl)bicyclo[2.2.1]heptan-2-yl)-2-methoxy-5-(3a,5,6,7a-tetrahydro-4H-pyrano[3,2-d]isoxazol-3-yl)nicotinamide]
1.5 | COc1ncc(C2=NOC3CC(CO)CC23)cc1C(=O)N[C@@H]1C2CCC(/C2=C/C2CC2)[C@@H]1C(=O)Nc1ccc(F)c(C(F)(F)F)c1 (single isomer, unassigned) [Example 69]
3.9 | COc1ncc(C2=NOC3CC(C(C)O)CC23)cc1C(=O)N[C@H]1[C@@H](C(=O)Nc2ccc(F)c(C(F)(F)F)c2)[C@H]2CC[C@@H]1/C2=C\C1CC1 (stereo partly drawn) [Example 112, N-((1R,2R,3S,4R,Z)-7-(cyclopropyl-methylene)-3-((4-fluoro-3-(trifluoromethyl)phenyl)carbamoyl)bicyclo[2.2.1]heptan-2-yl)-5-(5-(1-hydroxyethyl)-3a,5,6,6a-tetrahydro-4H-cyclopenta[d]isoxazol-3-yl)-2-methoxynicotinamide]
130 | COc1ncc(C2=NOC3CC(CO)CC23)cc1C(=O)N[C@@H]1C2CCC(/C2=C/C2CC2)[C@@H]1C(=O)Nc1ccc(F)c(C(F)(F)F)c1 (single isomer, unassigned) [Example 68]

Further lines, the compound ahead of its results:

Structure (SMILES) | EC50 [nM]
CC(C)(O)COc1ccc2c(C(=O)N[C@@H]3C4CCC(/C4=C/C(F)(F)F)[C@@H]3C(=O)Nc3ccc(F)c(C(F)(F)F)c3)nn(C(F)F)c2c1 (stereo partly drawn) [Example 57, 1-(difluoromethyl)-N-[(2R,3S,7Z)-3-{[4-fluoro-3-(trifluoromethyl)phenyl]carbamoyl}-7-(2,2,2-trifluoro-ethylidene)bicyclo[2.2.1]heptan-2-yl]-6-(2-hydroxy-2-methylpropoxy)-1H-indazole-3-carboxamide] | 3900
COc1ncc(-c2ccc(C(=O)O)cc2)cc1C(=O)N[C@@H]1C2CCC(C2=C(C)C)[C@@H]1C(=O)Nc1ccc(F)c(C(F)(F)F)c1 (stereo partly drawn) [Example 20, 4-(5-{[(2R,3S)-3-{[4-fluoro-3-(trifluoromethyl)phenyl]carbamoyl}-7-(propan-2-ylidene)bicyclo[2.2.1]heptan-2-yl]carbamoyl}-6-methoxypyridin-3-yl)benzoic acid] | 250
COCCN1CCc2cc(C(=O)N[C@@H]3C4CCC(/C4=C/C4CC4)[C@@H]3C(=O)Nc3ccc(F)c(C(F)(F)F)c3)c(OC)cc2C1 (stereo partly shown) [Example 91] | 4700
COc1ncc(C2=NOC3CC(C(O)C(F)(F)F)CC23)cc1C(=O)N[C@H]1[C@@H](C(=O)N[C@H](C)C2(C)CC2)[C@H]2CC[C@@H]1/C2=C\C1CC(F)(F)C1 (stereo partly drawn) [Example 170, N-[(1R,2R,3S,4R, 7Z)-7-[(3,3-difluorocyclobutyl)methylidene]-3-{[(1R)-1-(1-methylcyclo-propyl)ethyl]carbamoyl}bicyclo[2.2.1]heptan-2-yl]-2-methoxy-5-[5-(2,2,2-trifluoro-1-hydroxyethyl)-3aH,4H,5H,6H, 6aH-cyclopenta[d] [1,2]oxazol-3-yl]pyridine-3-carboxamide] | 3.3
COc1nccnc1C(=O)N[C@@H]1C2CCC(C2=C(C)C)[C@@H]1C(=O)Nc1ccc(F)c(C(F)(F)F)c1 (stereo partly drawn) [Example 7, N-[(2R,3S)-3-{[4-fluoro-3-(trifluoromethyl)phenyl]carbamoyl}-7-(propan-2-ylidene)bicyclo [2.2.1]heptan-2-yl]-3-methoxypyrazine-2-carboxamide] | 1200
COc1ccc(-c2cc([C@H](OC(=O)Nc3ccccc3)C(F)(F)F)ccc2F)nc1C(=O)N[C@@H]1C2CCC(/C2=C/C(F)(F)F)[C@@H]1C(=O)Nc1ccc(F)c(C(F)(F)F)c1 (stereo partly drawn) [Example 39, (1S)-2,2,2-trifluoro-1-14-fluoro-3-(6-{[(2R,3S,72)-3-{[4-fluoro-3-(trifluoromethyl)phenyl]carbamoyl}-7-(2,2,2-trifluoro-ethylidene)bicyclo[2. 2.1]heptan-2-yl]carbamoyl}-5-methoxypyridin-2-yl)phenyl]ethyl N-phenylcarbamate] | 110

From patent US20250011288A1 (BRISTOL-MYERS SQUIBB COMPANY, priority 2021, published 2025)
